According to patent US20080065002A1, “Catheter for Localized Drug Delivery and/or Electrical Stimulation” (NEUROSYSTEC CORPORATION, priority 2006, published 2008):

Assay: Expected decomposition of gacyclidine in solution
Assay type: physicochemical
Settings: 72 hours at 37° C.
Procedure: The compatibility of gacyclidine in Ringer's Lactate (pH 6.0) in PTFE tubing at room temperature and at 37° C. was evaluated. Three sets of six segments each of PTFE tubing were used. Six samples were collected at each of three time intervals (6 hr, 23 hr and 72 hr). For each set of samples collected, three were incubated at ambient temperature and three were incubated at 37° C. A 16.5 ft. long segment of PTFE tubing (0.010″ ID, 0.018″ OD) was filled with 100 μM gacyclidine in Ringer's Lactate solution (pH 6.0) by use of a glass syringe. The two ends of the tubing were sealed with a paraffin wax vapor barrier. After incubating at room temperature or 37° C. for a specified time, the solution was pumped directly into a glass HPLC autosampler vial insert using an air-filled syringe. The PTFE tubing drug loss in 72 hours at room temperature was 1.3% and at 37° C. was 7.9%. […] The expected amount of decomposition expected in 72 hours at 37° C. is 8.0%.

CC1CCCCC1(c1cccs1)N1CCCCC1 (stereo not shown) [gacyclidine]
expected amount of decomposition: 8.0%
